Reference: patent publication EP0162545A2, “Enhanced bioconversion processes” (BETZ EUROPE, INC., priority 1984, dated 1985)
Read-outs that look alike come from different tables or passages of the source.

Legend:
Klebsiella = type: cell-based
Experimental: At 0.05 µg/mL level, TOC removal was equivalent to the untreated control. When BNS concentrations of 0.5 µg/mL were used, TOC removal ceased and in the second series of experiments, TOC levels increased sharply at 0.5 - 2 µg/mL concentrations of BNS. Similar results were obtained when BNS was used to treat bacteria growing in the glucose salts medium. No increases in TOC removal were seen. The TOC concentration increased rapidly at BNS concentration of 0.5 - 2 ppm only to fall back to control levels at 5 ppm. The cells then added TOC to the medium again from […] concentrations of BNS. This middle range spike in TOC (0.5-2 µg/mL BNS) was thought to be caused by excessive extra cellular polymer sloughing and limited cellular death as evidenced by the viability counts in the. 0.5 - 2 µg/mL BNS range. […] The dissolved oxygen concentration was decreased in the presence of BNS at concentrations of 0.05 - 1 µg/mL but at no concentration of BNS was the removal greater than the control level.
This set of experiments tends to make the BNS range of useful concentrations even lower than noted before. […] DO removal was seriously affected by concentrations of BNS that were ≥ 0.5 µg/mL. In short, it would appear that BNS would have to be used at concentrations ≤ 0.5 µg/mL in order to prevent the upset of a waste treatment facility by killing off the microbial populations. […]

E. coli K12 ATCC 25404 = test: Continuous culture (chemostat) biomass yield; type: cell-based, Escherichia coli; details: for inhibition of growth at 5 ppm / inhibition of growth at 2 ppm / inhibition of growth at 1 ppm: Escherichia coli, read-out: % From Control
Experimental: Biomass determinations were by Millipore Filtration using Millipore type H.A. 0.45 µ filters. Samples were centrifuged @ 15,000 x for 10 min., supernatant was filtered through a dried and preweighed filter. The centrifuged pellet was then vortexed in 2 mL of D.I. water and filtered also. Samples were then dried overnight @ 105°C and re-weighed. Biomass was the weight of the dried filter less the tared filter weight.
Glucose determinations were carried out on the centrifuged reactor sample supernatants using glucose enzymatic assay (hexokinase and glucose 6-phosphate dehydrogenase) UV-15 Sigma Chemical Co., St. Louis, MO. (Assay set-up pamphlet accompanies kit). Spectrophotometric measurements were run on a Zeiss PM-6 Spektralphotometer, Carl Zeiss, 7082 Oberkochen, West Germany.
Continuous culture medium was composed of 5 g/1 glucose, 40 mL/1 25 X VBE, and 2.5 mL/1 trace mixture. Bulk medium composed of deionized H20 plus 25X VBE was steam sterilized for 45 min. @ 121°C. Trace mix was autoclaved separately and added aseptically. Glucose was filter sterilized and added last (aseptically).
Bioflo Model C32 Chemostat units (bioreactors) , New Brunswick Scientific, Edison NJ, with a working volume of 1400 mL were utilized for the continuous culture experimentation. pH control on the systems was maintained by Model 5997-20 Horizon pH Controllers. Ingold Sterilizable pH Electrodes, Type 465-35-K9, Andover, MA, were sterilized in place before each run. pH adjustment was by controller addition of sterile 2N NaOH upon demand.
Sterile chemostats vessels were filled to working volume with media seeded with 10 mL of 48 hr. E. coli K12 ATCC 25404 culture grown up overnight in nutrient broth (BBL, Cockeysville, MD) @ 37°C. Reactors were run for 72 hours in the batch mode @ 37°C, and then put into continuous flow. The reactors were run for a minimum of five reactor turnovers before initial sampling to insure a steady state. Sampling was then conducted at a maximum of once/reactor turnover, with a minimum number of 11 reactor turnovers per chemostat run. Both control and BNS containing chemostats were stripped, cleaned and the E. coli culture reestablished (as above) each time before either the BNS concentration or the dilution rate was increased. Eleven reactor turnovers is equivalent to 3.5 days at the highest dilution rate used (minimum time for a chemostat run). Uncoupler Addition to Continuous Culture
BNS stock was composed of 10% BNS, 5% Triton X-114 and 85% carbitol acetate. BNS was diluted in deionized water to the appropriate 10X concentration desired. Breakdown kinetics were measured in a deionized H20/BNS system by spectrophotometric measurement at 320 nm and a BNS half life was determined to be 7 hours. Continuous and separate pumping of uncoupler was by a Masterflex 7552-10 peristalic pump (Cole Parmer, Chicago, IL) through silicon tubing lines into the bioreactor. Feed flow was split 90% organic feed, 10% BNS feed for total flow. New uncoupler feed was made up daily from the previously mentioned stock, since there was only 10% of the original BNS concentration left before the new daily solution of BNS feed was begun. BNS dose of 1, 2 and 5 ppm was based on the total bulk feed. Reservoir solutions were mixed constantly on a Fisher versamix magnetic stir plate at a speed of 0.4/1.0 to prevent settling out of chemical.
Chemostat system parameters were set at pH - 7.0, temper, ature 37°C, aeration 2.0 standard litres per minute (SLPM) and agitation at 300 rpm for all experimentation.
Daily checks were made on system for pH, media flow, NaOH consumption, BNS flow, temperature; agitation speed and aeration rate. Mixed liquor glucose and gravimetric biomass determinations were performed at least 5 times per week. Periodic checks were also made on the organic strength of the influent medium, depending on the frequency of new media make-up.

O=[N+]([O-])C(Br)=Cc1ccccc1 [BNS, beta-bromo-beta-nitrostyrene] was tested, and the “concentrations seriously affecting DO removal” value (Klebsiella) was ≥ 500 ng/mL, the toxic concentration (Klebsiella) was 0.5 to 1 µg/mL and the “Biomass Yield” value (E. coli K12 ATCC 25404; 1.0 ppm BNS, Dilution Rate 0.068 hr.^-1) was 0.268 g cells/g substrate. The “Biomass Yield” value (E. coli K12 ATCC 25404; 1.0 ppm BNS, Dilution Rate 0.086 hr.^-1) was 0.276 g cells/g substrate, the “Biomass Yield” value (E. coli K12 ATCC 25404; 1.0 ppm BNS, Dilution Rate 0.132 hr.^-1) was 0.324 g cells/g substrate and the “Biomass Yield” value (E. coli K12 ATCC 25404; 2.0 ppm BNS, Dilution Rate 0.066 hr.^-1) was 0.273 g cells/g substrate. For the same compound, the “Biomass Yield” value (E. coli K12 ATCC 25404; 2.0 ppm BNS, Dilution Rate 0.090 hr.^-1) was 0.241 g cells/g substrate, the “Biomass Yield” value (E. coli K12 ATCC 25404; 2.0 ppm BNS, Dilution Rate 0.130 hr.^-1) was 0.275 g cells/g substrate and the “Biomass Yield” value (E. coli K12 ATCC 25404; 5.0 ppm BNS, Dilution Rate 0.070 hr.^-1) was 0.287 g cells/g substrate. The “Biomass Yield” value (E. coli K12 ATCC 25404; 5.0 ppm BNS, Dilution Rate 0.090 hr.^-1) was 0.237 g cells/g substrate, the “Biomass Yield” value (E. coli K12 ATCC 25404; 5.0 ppm BNS, Dilution Rate 0.131 hr.^-1) was 0.298 g cells/g substrate and the inhibition of growth at 5 ppm (E. coli K12 ATCC 25404; ATCC25404, 0.07 h, 5.0 ppm BNS, Dilution Rate 0.070 hr.^-1) was 9.5%. The inhibition of growth at 2 ppm (E. coli K12 ATCC 25404; ATCC25404, 0.09 h, 2.0 ppm BNS, Dilution Rate 0.090 hr.^-1) was 26.1%, the inhibition of growth at 5 ppm (E. coli K12 ATCC 25404; ATCC25404, 0.09 h, 5.0 ppm BNS, Dilution Rate 0.090 hr.^-1) was 27.3% and the inhibition of growth at 2 ppm (E. coli K12 ATCC 25404; ATCC25404, 0.13 h, 2.0 ppm BNS, Dilution Rate 0.130 hr.^-1) was 18.3%. For the same compound, the inhibition of growth at 1 ppm (E. coli K12 ATCC 25404; ATCC25404, 1.0 ppm BNS, Dilution Rate 0.068 hr.^-1) was 15.2%, the inhibition of growth at 1 ppm (E. coli K12 ATCC 25404; ATCC25404, 1.0 ppm BNS, Dilution Rate 0.086 hr.^-1) was 15% and the inhibition of growth at 1 ppm (E. coli K12 ATCC 25404; ATCC25404, 1.0 ppm BNS, Dilution Rate 0.132 hr.^-1) was 3.9%. It also gave an inhibition of growth at 2 ppm (E. coli K12 ATCC 25404; ATCC25404, 2.0 ppm BNS, Dilution Rate 0.066 hr.^-1) of 13.3% and an inhibition of growth at 5 ppm (E. coli K12 ATCC 25404; ATCC25404, 5.0 ppm BNS, Dilution Rate 0.131 hr.^-1) of 11.5%.
